How the values were obtained:
RIPK2 (KD)/XIAP (BIR2) = molecular target: T1, RIPK2 (KD)/XIAP (BIR2) (Homo sapiens, UniProt O43353); experiment: RIPK2-XIAP binding competition PPI assay (TR-FRET); details: for Emax: 50 nM of GSK583 = -100% activity, read-out: PPI Amax; for IC50: GST-RIPK2 / His-XIAP (BIR2)-avi, 120 min at 23° C.
T1 construct: made in house; host or cells: baculovirus-infected Sf9 cells
How it was run: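 TR-FRET competition between GST-RIPK2 (aa 1-310, 1 nM) and His-XIAP BIR2-avi (aa 152-231, 25 nM), both Sf9-expressed, detected with anti-His-XL665 and anti-GST-Tb in Tris pH 7.5 buffer with MgCl2, DTT and vanadate. Incubation was 120 min at 23 °C; the 665/520 nm ratio was normalized to no inhibitor (0%) and 50 nM GSK583 (−100%).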

[1] = system: THP1-Dual cells, NF-κB pathway (SEAP); experiment: THP-1 Dual cell SEAP assay (L18-MDP stimulated); type: cell-based; details: Homo sapiens, 10 ng/mL L18-MDP, 20-24 h, SEAP readout, read-out: IFNγ THP1 IC50
How it was run: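 About 25,000 THP1-Dual cells per well were preincubated 30 min with serially diluted compound, then stimulated overnight (20-24 h, 37 °C) with 10 ng/mL L18-MDP (final). NF-κB-driven SEAP in supernatant was read with QUANTI-Blue at OD 620-655 nm after 2 h; % inhibition versus DMSO/L18-MDP wells was fitted by non-linear regression to give IC50.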

T1 sequence (O43353 1-310): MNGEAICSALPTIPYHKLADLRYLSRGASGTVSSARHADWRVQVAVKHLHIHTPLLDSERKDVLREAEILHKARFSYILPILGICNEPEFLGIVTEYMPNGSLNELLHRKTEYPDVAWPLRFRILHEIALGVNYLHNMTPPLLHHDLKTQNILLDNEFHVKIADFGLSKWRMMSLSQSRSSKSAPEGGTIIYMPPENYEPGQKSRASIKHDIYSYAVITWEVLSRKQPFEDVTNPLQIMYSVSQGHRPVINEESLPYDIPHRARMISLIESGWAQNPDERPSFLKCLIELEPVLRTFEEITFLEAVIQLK

| Compound | Emax (RIPK2 (KD)/XIAP (BIR2)) [%] | IC50 (RIPK2 (KD)/XIAP (BIR2)) [nM] | IC50 [1] [nM] |
| --- | --- | --- | --- |
| COc1cc2ncc(-c3cc(C(=O)NCc4ccn(C)n4)n(C)n3)n2cc1S(=O)(=O)C(C)(C)C [Example 24, 3-(6-(tert-butylsulfonyl)-7-methoxyimidazo[1,2-a]pyridin-3-yl)-1-methyl-N-((1-methyl-1H-pyrazol-3-yl)methyl)-1H-pyrazole-5-carboxamide] | ≥ 80 | 100 to 1000 | 500 to 2500 |
| CCn1nc(-c2cnn3cc(OCCO)c(S(=O)(=O)C(C)(C)C)cc23)cc1C(=O)N[C@H](C)c1ncccn1 [Example 117, (R)-3-(5-(tert-butylsulfonyl)-6-(2-hydroxyethoxy)pyrazolo[1,5-a]pyridin-3-yl)-1-ethyl-N-(1-(pyrimidin-2-yl)ethyl)-1H-pyrazole-5-carboxamide] | ≥ 80 | 10 to 100 | < 100 |
| COc1cc2ncc(-c3cc(C(=O)N[C@H](C)c4cccc(F)c4)n(C)n3)n2cc1S(=O)(=O)C(C)(C)C [Example 13, (R)-3-(6-(tert-butylsulfonyl)-7-methoxyimidazo[1,2-a]pyridin-3-yl)-N-(1-(3-fluorophenyl)ethyl)-1-methyl-1H-pyrazole-5-carboxamide] | ≥ 80 | 100 to 1000 | > 2500 |
| COc1cc2ncc(-c3cc(C(=O)NCC4CCC4)n(C)n3)n2cc1S(=O)(=O)C(C)(C)C [Example 39, 3-(6-(tert-butylsulfonyl)-7-methoxyimidazo[1,2-a]pyridin-3-yl)-N-(cyclobutylmethyl)-1-methyl-1H-pyrazole-5-carboxamide] | ≥ 80 | 100 to 1000 | > 2500 |
| CCn1nc(-c2cnc3cc(OCCO)c(S(=O)(=O)C(C)(C)C)cn23)cc1C(=O)NCc1nccs1 [Example 127, 3-(6-(tert-butylsulfonyl)-7-(2-hydroxyethoxy)imidazo[1,2-a]pyridin-3-yl)-1-ethyl-N-(thiazol-2-ylmethyl)-1H-pyrazole-5-carboxamide] | ≥ 80 | < 10 | < 100 |
| COc1cc2ncc(-c3cc(C(=O)NCc4cc(F)ccn4)n(C)n3)n2cc1S(=O)(=O)C(C)(C)C [Example 53, 3-(6-(tert-butylsulfonyl)-7-methoxyimidazo[1,2-a]pyridin-3-yl)-N-((4-fluoropyridin-2-yl)methyl)-1-methyl-1H-pyrazole-5-carboxamide] | ≥ 80 | 100 to 1000 | > 2500 |
| COc1cc2ncc(-c3cc(C(=O)NC(C)C)n(C)n3)n2cc1S(=O)(=O)C(C)(C)C [Example 37, 3-(6-(tert-butylsulfonyl)-7-methoxyimidazo[1,2-a]pyridin-3-yl)-N-isopropyl-1-methyl-1H-pyrazole-5-carboxamide] | 30 to 55 | > 1000 | > 2500 |
| COc1cn2ncc(-c3cc(C(=O)N[C@H](C)c4ncccc4F)n(C)n3)c2cc1S(=O)(=O)C(C)(C)C [Example 114, (R)-3-(5-(tert-butylsulfonyl)-6-methoxypyrazolo[1,5-a]pyridin-3-yl)-N-(1-(3-fluoropyridin-2-yl)ethyl)-1-methyl-1H-pyrazole-5-carboxamide] | ≥ 80 | 10 to 100 | 100 to 500 |
| COc1cc2ncc(-c3cc(C(=O)NCc4ncccc4C)n(C)n3)n2cc1S(=O)(=O)C(C)(C)C [Example 65, 3-(6-(tert-butylsulfonyl)-7-methoxyimidazo[1,2-a]pyridin-3-yl)-1-methyl-N-((3-methylpyridin-2-yl)methyl)-1H-pyrazole-5-carboxamide] | ≥ 80 | 100 to 1000 | > 2500 |
| COc1cc2ncc(-c3cc(NC(=O)O[C@@H](C)c4ccccc4)n(C)n3)n2cc1S(=O)(=O)C(C)(C)C [Example 150, (S)-1-phenylethyl (3-(6-(tert-butylsulfonyl)-7-methoxyimidazo[1,2-a]pyridin-3-yl)-1-methyl-1H-pyrazol-5-yl)carbamate] | ≥ 80 | 100 to 1000 | 500 to 2500 |
| COc1cc2ncc(-c3cc(C(=O)NCc4ccccc4)n(C)n3)n2cc1S(=O)(=O)C(C)(C)C [Example 28, N-benzyl-3-(6-(tert-butylsulfonyl)-7-methoxyimidazo[1,2-a]pyridin-3-yl)-1-methyl-1H-pyrazole-5-carboxamide] | ≥ 80 | 100 to 1000 | 500 to 2500 |
| COc1cc2ncc(-c3cc(C(=O)N[C@H](C)c4ccccn4)n(CC(F)(F)CO)n3)n2cc1S(=O)(=O)C(C)(C)C [Example 106, (R)-3-(6-(tert-butylsulfonyl)-7-methoxyimidazo[1,2-a]pyridin-3-yl)-1-(2,2-difluoro-3-hydroxypropyl)-N-(1-(pyridin-2-yl)ethyl)-1H-pyrazole-5-carboxamide] | ≥ 80 | 10 to 100 | 100 to 500 |
| CCn1nc(-c2cnc3cc(OCCO)c(S(=O)(=O)C(C)(C)C)cn23)cc1C(=O)N[C@H](C)c1nccs1 [Example 120, (R)-3-(6-(tert-butylsulfonyl)-7-(2-hydroxyethoxy)imidazo[1,2-a]pyridin-3-yl)-1-ethyl-N-(1-(thiazol-2-yl)ethyl)-1H-pyrazole-5-carboxamide] | ≥ 80 | < 10 | < 100 |
| COc1cc2ncc(-c3cc(C(=O)N[C@@H]4CCc5cccnc54)n(C)n3)n2cc1S(=O)(=O)C(C)(C)C [Example 63, (R)-3-(6-(tert-butylsulfonyl)-7-methoxyimidazo[1,2-a]pyridin-3-yl)-N-(6,7-dihydro-5H-cyclopenta[b]pyridin-7-yl)-1-methyl-1H-pyrazole-5-carboxamide] | ≥ 80 | 100 to 1000 | > 2500 |
| C[C@@H](NC(=O)c1cc(-c2cnc3cc(OCCO)c(S(=O)(=O)C(C)(C)C)cn23)nn1C)c1nccs1 [Example 94, (R)-3-(6-(tert-butylsulfonyl)-7-(2-hydroxyethoxy)imidazo[1,2-a]pyridin-3-yl)-1-methyl-N-(1-(thiazol-2-yl)ethyl)-1H-pyrazole-5-carboxamide] | ≥ 80 | 10 to 100 | 100 to 500 |
| COc1cc2ncc(-c3cc(C(=O)NCc4ncccc4C#N)n(C)n3)n2cc1S(=O)(=O)C(C)(C)C [Example 82, 3-(6-(tert-butylsulfonyl)-7-methoxyimidazo[1,2-a]pyridin-3-yl)-N-((3-cyanopyridin-2-yl)methyl)-1-methyl-1H-pyrazole-5-carboxamide] | ≥ 80 | 10 to 100 | 500 to 2500 |
| C[C@@H](NC(=O)c1cc(-c2cnn3cc(OCCO)c(S(=O)(=O)C(C)(C)C)cc23)nn1C)c1ccccn1 [Example 115, (R)-3-(5-(tert-butylsulfonyl)-6-(2-hydroxyethoxy)pyrazolo[1,5-a]pyridin-3-yl)-1-methyl-N-(1-(pyridin-2-yl)ethyl)-1H-pyrazole-5-carboxamide] | ≥ 80 | 10 to 100 | 500 to 2500 |
| COc1cc2ncc(-c3cc(C(=O)NCc4cc5ccccn5n4)n(C)n3)n2cc1S(=O)(=O)C(C)(C)C [Example 23, 3-(6-(tert-butylsulfonyl)-7-methoxyimidazo[1,2-a]pyridin-3-yl)-1-methyl-N-(pyrazolo[1,5-a]pyridin-2-ylmethyl)-1H-pyrazole-5-carboxamide] | ≤ 30 | > 1000 | 500 to 2500 |

Reference: patent US20260091026A1, “METHODS OF TREATING INFLAMMATORY DISEASES” (INTERLINE THERAPEUTICS, INC., priority 2023, published 2026)
